Where two headings read alike, the source gives them in different places.

The IC50 is the concentration that inhibits the measured activity by half.

Test [1] concerns the target recombinant human Mcl-1 (residues 171-327) / Bim interaction (Homo sapiens (Human), UniProt Q07820). Kind of test: biochemical. The format is binding. To be noted: read-out: Mcl-1 HTRF IC50. For orientation: TR-FRET usually uses a lanthanide donor and a delayed reading to cut background.
For test [2], the system named is human multiple myeloma cell line, OPM-2. Kind of test: Cell viability assay (OPM-2 10 FBS), CellTiter-Glo. The format is cell-based. The gist of the method: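 IC50 values come from 4-parameter logistic fits of luminescence signals reflecting cell viability. Treatment lasted 16 h at 37 °C in complete medium with 10% FBS, starting from 3000 cells/well.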
Where [3] appears, read: TR-FRET, Mcl-1(171-327) / biotin-Bim (51-76).
Setting [4] is: read-out: OPM-2 10% FBS IC50 IP, OPM-2 cells, 10% FBS, 16 h, CellTiter-Glo.
[5] abbreviates: Homo sapiens, OPM-2, 16 h, read-out: OPM-2 10% FBS IC50 IP, OPM-2 cells, 10% FBS, 16 h, CellTiter-Glo.

Chain of recombinant human Mcl-1 (residues 171-327) / Bim interaction (Q07820 171-327): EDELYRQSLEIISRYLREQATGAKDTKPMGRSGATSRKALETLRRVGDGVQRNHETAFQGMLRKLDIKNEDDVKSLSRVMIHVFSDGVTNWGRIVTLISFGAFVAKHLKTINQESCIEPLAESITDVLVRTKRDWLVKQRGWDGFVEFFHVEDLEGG

As for `C[C@@H]1[C@@H](C)CCC[C@@](O)(Cc2nccn2C)[C@@H]2CC[C@H]2CN2C[C@@]3(CCCc4cc(Cl)ccc43)COc3ccc(cc32)C(=O)NS1(=O)=O` [Example 100163, (1S,3′R,6′R,7′R,11′S,12′R)-6-chloro-7′-hydroxy-11′,12′-dimethyl-7′-((1-methyl-1H-imidazol-2-yl)methyl)-3,4-dihydro-2H,15′H-spiro[naphthalene-1,22′-[20]oxa[13]thia[1,14]diazatetracyclo [14.7.2.0~3,6~.0~19,24~]pentacosa[16,18,24]trien]-15′-one 13′,13′-dioxide], the concentration for half-maximal inhibition (IC50) was found to be 2.79 nM in test [1] (setting [3]) and 1000 nM in test [2] (setting [4]).
Consider `CCC[C@]1(O)/C=C/C[C@H](C)[C@@H](C)S(=O)(=O)NC(=O)c2ccc3c(c2)N(C[C@@H]2CC[C@H]21)C[C@@]1(CCCc2cc(Cl)ccc21)CO3` [Example 100232, (1S,3′R,6′R,7′S,8′E,11′S,12′R)-6-chloro-7′-hydroxy-11′,12′-dimethyl-7′-propyl-3,4-dihydro-2H,15′H-spiro[naphthalene-1,22′-[20]oxa[13]thia[1,14]diazatetracyclo [14.7.2.0~3,6~.0~19,24~]pentacosa[8,16,18,24]tetraen]-15′-one 13′,13′-dioxide], for which the results for the IC50 in test [1] and in test [2] (setting [5]) were 0.152 nM and 389 nM, respectively.
As to `CO[C@]1(CCN(C)C)/C=C/C[C@H](C)[C@@H](C)S(=O)(=O)NC(=O)c2ccc3c(c2)N(C[C@@H]2CC[C@H]21)C[C@@]1(CCCc2cc(Cl)ccc21)CO3` [Example 100381, (1S,3′R,6′R,7′R,8′E,11′S,12′R)-6-chloro-7′-(2-(dimethylamino)ethyl)-7′-methoxy-11′,12′-dimethyl-3,4-dihydro-2H,15′H-spiro[naphthalene-1,22′-[20]oxa[13]thia[1,14]diazatetracyclo [14.7.2.0~3,6~.0~19,24~]pentacosa[8,16,18,24]tetraen]-15′-one 13′,13′-dioxide], the concentration for half-maximal inhibition (IC50) in test [1] (setting [3]) turned out to be 0.328 nM; in test [2] (setting [5]) it was 2910 nM.
On to `C[C@@H]1[C@@H](C)CCC[C@@](O)(CCN2CC(F)(F)C2)[C@@H]2CC[C@H]2CN2C[C@@]3(CCCc4cc(Cl)ccc43)COc3ccc(cc32)C(=O)NS1(=O)=O` [Example 100094, (1S,3′R,6′R,7′R,11′S,12′R)-6-chloro-7′-(2-(3,3-difluoro-1-azetidinyl)ethyl)-7′-hydroxy-11′,12′-dimethyl-3,4-dihydro-2H,15′H-spiro[naphthalene-1,22′-[20]oxa[13]thia[1,14]diazatetracyclo [14.7.2.0~3,6~.0~19,24~]pentacosa[16,18,24]trien]-15′-one 13′,13′-dioxide], for which the IC50 in test [1] (setting [3]) was determined as 3.83 nM; in test [2] (setting [4]), 4380 nM.
With `CCN(CC)C(=O)C[C@]1(O)/C=C/C[C@H](C)[C@@H](C)S(=O)(=O)NC(=O)c2ccc3c(c2)N(C[C@@H]2CC[C@H]21)C[C@@]1(CCCc2cc(Cl)ccc21)CO3` [Example 100083, 2-((1S,3′R,6′R,7′S,8′E,11′S,12′R)-6-chloro-7′-hydroxy-11′,12′-dimethyl-13′,13′-dioxido-15′-oxo-3,4-dihydro-2H-spiro[naphthalene-1,22′-[20]oxa[13]thia[1,14]diazatetracyclo [14.7.2.0~3,6~.0~19,24~]pentacosa[8,16,18,24]tetraen]-7′-yl)-N,N-diethylacetamide], the 50% inhibitory concentration (IC50) in test [1] (setting [3]) was found to be 0.179 nM; in test [2] (setting [5]), 123 nM.
As to `COC1=NO[C@@]2(CCC[C@H](C)[C@@H](C)S(=O)(=O)NC(=O)c3ccc4c(c3)N(C[C@@H]3CC[C@H]32)C[C@@]2(CCCc3cc(Cl)ccc32)CO4)C1` [Example 100134, (1S,3′R,6′R,7′S,11′S,12′R)-6-chloro-3″- methoxy-11′,12′-dimethyl-3,4-dihydro-2H,4″H,15′H-dispiro[naphthalene-1,22′-[20]oxa[13]thia[1,14]diazatetracyclo [14.7.2.0~3,6~.0~19,24~]pentacosa[16,18,24]triene-7′,5″-[1,2]oxazol]-15′-one 13′,13′-dioxide], the IC50 in test [1] (setting [3]) was determined as 0.845 nM; in test [2] (setting [5]), 3510 nM.
